Test systems include SK-MEL-28; TK-10; CCRF-CEM; OVCAR-8; HOP-62; RPMI-8226; HOP-92; SK-OV-3; M14; UACC-257; A549; 786-0; SR; HCT-116; NCI-H460; U-251; MOLT-4; HCC 2998; UO-31; MCF7.
Assay in all cases: NCI tumour cell line growth inhibition, 48 h

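Following 48 hours of exposure in 96-well plates, responses at five concentrations were used to interpolate endpoints linearly. At the GI50, growth is halved.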 Activity calls are given as the source filed them. Cut-off read from the data, not from the text of the source: active = GI50 up to about 1.1 µM and inactive = higher.

The text below walks through data of ChEMBL document CHEMBL1201862, “PubChem BioAssay data set” (2004).

Regarding `CC(=O)OCC1=C(CCC#N)N2C(=O)C(NC(=O)Cc3cccs3)C2[S+]([O-])C1` (stereo not given), the GI50 in the test on SK-MEL-28, in the test with TK-10, in the test with CCRF-CEM, in the test on OVCAR-8, in the test with HOP-62 and with RPMI-8226 was > 100 µM (inactive) in each case. The GI50 with HOP-92, in the test on SK-OV-3, with M14, in the test on UACC-257, in the test on A549 and with 786-0 was > 100 µM (inactive) in each case. The GI50 in the test on SR, with HCT-116, in the test on NCI-H460, in the test on U-251, in the test on MOLT-4 and with HCC 2998 was > 100 µM (inactive) throughout. Besides, the GI50 in the test with UO-31 was > 100 µM (inactive).

For the molecule `Ic1cc2c(cc1C1SCCCS1)OCO2`, the GI50 in the test with SK-MEL-28, in the test on TK-10, with CCRF-CEM, in the test on OVCAR-8, in the test with HOP-62 and in the test on RPMI-8226 was > 100 µM (inactive) in each case. Also, the GI50 in the test with HOP-92, in the test on SK-OV-3, in the test on M14, in the test on UACC-257, in the test on A549 and in the test with 786-0 was > 100 µM (inactive) in each case. Further, the GI50 with SR, with HCT-116, in the test with NCI-H460, with U-251, with MOLT-4 and with HCC 2998 was > 100 µM (inactive) in each case. Moreover, in the test on UO-31, the GI50 was > 100 µM (inactive).

Regarding `O=c1oc2c3ccc4ccccc4c3n(CCN3CCCCC3)c2c2ccccc12`, the GI50 in the test on SK-MEL-28 is > 71.6 µM (inactive); with TK-10, 37.2 µM (inactive); in the test with CCRF-CEM, 9.35 µM (inactive); with OVCAR-8, 19 µM (inactive); in the test on HOP-62 it was 21.3 µM (inactive); with RPMI-8226, > 100 µM (inactive). Further, the GI50 is > 100 µM (inactive) with HOP-92; 43.1 µM (inactive) in the test on SK-OV-3; 20 µM (inactive) with M14; > 62.5 µM (inactive) in the test with UACC-257; 15.6 µM (inactive) with A549; 10.3 µM (inactive) in the test on 786-0. The GI50 in the test on SR is 3.21 µM (inactive); in the test on HCT-116, 31.8 µM (inactive); with NCI-H460, 4.12 µM (inactive); in the test with U-251, 17.7 µM (inactive); in the test on MOLT-4, 2.46 µM (inactive); in the test on HCC 2998, 80.5 µM (inactive). In the test on UO-31, the GI50 was 49.4 µM (inactive).

On to `O=C1C(C(O)(C(F)(F)Cl)C(F)(F)Cl)CCCC1C(O)(C(F)(F)Cl)C(F)(F)Cl` (stereo not given), for which the GI50 was > 10 µM (inactive) in the test on SK-MEL-28; > 10 µM (inactive) in the test on TK-10; > 10 µM (inactive) in the test on OVCAR-8; > 10 µM (inactive) with HOP-62; 5.11 µM (inactive) in the test with HOP-92; > 10 µM (inactive) in the test on SK-OV-3. The GI50 with M14, with UACC-257, in the test with A549, with 786-0, with HCT-116 and in the test on MCF7 was > 10 µM (inactive) throughout. The GI50 with NCI-H460, in the test on U-251 and in the test with HCC 2998 was > 10 µM (inactive) throughout.

Regarding `COc1cc(OC)c2c(c1)C(=O)C(CC1(C)OCCCO1)=CC2=O`, the GI50 in the test with SK-MEL-28 is 11.6 µM (inactive); in the test with TK-10 it was 12.5 µM (inactive); in the test with CCRF-CEM it was 1.74 µM (inactive); in the test with OVCAR-8, 9.27 µM (inactive); in the test on HOP-62, 19.1 µM (inactive); in the test with RPMI-8226, 3.78 µM (inactive). Also, the GI50 with HOP-92 is 1.83 µM (inactive); in the test on SK-OV-3, 20 µM (inactive); in the test with M14, 13 µM (inactive); with UACC-257 it was 13 µM (inactive); with A549, 18.9 µM (inactive); with 786-0, 9.77 µM (inactive). Also, the GI50 in the test on SR was 1.29 µM (inactive); with HCT-116 it was 5.35 µM (inactive); in the test on NCI-H460, 18.6 µM (inactive); in the test with U-251, 17.4 µM (inactive); in the test with MOLT-4, 2.05 µM (inactive); in the test with HCC 2998, 17.9 µM (inactive). For the same molecule, in the test with UO-31, the GI50 was 11 µM (inactive).

Take `CCOC(=O)C1(Br)C(c2ccccc2)NC(=O)NC1(C)Br` (stereo not given): the GI50 with SK-MEL-28 is > 100 µM (inactive); in the test on TK-10, > 100 µM (inactive); in the test with CCRF-CEM, 33.9 µM (inactive); in the test with OVCAR-8, 89.3 µM (inactive); in the test with HOP-62, > 100 µM (inactive); with RPMI-8226, 62.2 µM (inactive). In addition, the GI50 with HOP-92 was > 100 µM (inactive); with SK-OV-3, > 100 µM (inactive); with M14, 82.8 µM (inactive); in the test with UACC-257, 82 µM (inactive); in the test on A549, > 100 µM (inactive); with 786-0, 38.3 µM (inactive). In addition, the GI50 with SR is 57.1 µM (inactive); with HCT-116, 60.4 µM (inactive); with NCI-H460 it was > 100 µM (inactive); with U-251, 16.4 µM (inactive); with MOLT-4 it was 73.3 µM (inactive); in the test on HCC 2998, > 100 µM (inactive). In addition, the GI50 in the test on UO-31 is > 100 µM (inactive).

For the molecule `CCC12C=CCN3CC[C@]4(C(=C(C(=O)OC)[C@@H]1Nc1ncnc5c1ncn5C1OC(COC(C)=O)C(OC(C)=O)C1OC(C)=O)Nc1ccccc14)C32` (stereo not given in full), the GI50 is 3.52 µM (inactive) in the test on SK-MEL-28; 2.87 µM (inactive) in the test with TK-10; 2.45 µM (inactive) in the test with CCRF-CEM; 2.18 µM (inactive) with OVCAR-8; 2.84 µM (inactive) in the test on HOP-62; 3.27 µM (inactive) in the test with RPMI-8226. The GI50 was 2.39 µM (inactive) in the test on HOP-92; 2.36 µM (inactive) in the test on SK-OV-3; 2.62 µM (inactive) in the test with M14; 5.3 µM (inactive) in the test with UACC-257; 3.53 µM (inactive) in the test with A549; 1.94 µM (inactive) in the test on 786-0. In addition, the GI50 in the test with SR was 2.34 µM (inactive); in the test with HCT-116, 2.82 µM (inactive); in the test with NCI-H460, 2.51 µM (inactive); in the test with U-251, 2.19 µM (inactive); in the test with MOLT-4, 3.3 µM (inactive); in the test with HCC 2998, 1.82 µM (inactive). For the same molecule, the GI50 with UO-31 was 5.62 µM (inactive).

Turning to `COC(=O)/C([Se]c1c(C)cc(C)cc1C)=C(/[Se]c1c(C)cc(C)cc1C)C(=O)OC`, the GI50 with TK-10 is > 100 µM (inactive); in the test on CCRF-CEM, > 100 µM (inactive); in the test with OVCAR-8 it was > 100 µM (inactive); in the test on HOP-62, > 100 µM (inactive); in the test with RPMI-8226 it was 76 µM (inactive); in the test with HOP-92, 68.4 µM (inactive). Also, the GI50 in the test on SK-OV-3 was > 100 µM (inactive); in the test with M14, > 100 µM (inactive); in the test on UACC-257, > 100 µM (inactive); in the test on A549 it was > 100 µM (inactive); in the test with 786-0, > 100 µM (inactive); in the test on SR, 39.9 µM (inactive). For the same molecule, the GI50 in the test on HCT-116 is > 100 µM (inactive); in the test on NCI-H460, 78.7 µM (inactive); with U-251, > 100 µM (inactive); in the test on MOLT-4 it was 47.3 µM (inactive); with HCC 2998, > 100 µM (inactive); with UO-31, > 100 µM (inactive).

In the case of `Cc1ccc([N+](=O)[O-])cc1NC(=O)C(=O)Cc1cc(=O)oc2cc(O)ccc12`, the GI50 in the test on SK-MEL-28 was 33.5 µM (inactive); in the test with TK-10 it was > 100 µM (inactive); with CCRF-CEM it was 39.1 µM (inactive); in the test with OVCAR-8 it was > 100 µM (inactive); in the test on HOP-62 it was > 100 µM (inactive); in the test with RPMI-8226, 32.1 µM (inactive). The GI50 in the test on HOP-92, with SK-OV-3, in the test on M14, with UACC-257, in the test with A549 and in the test on 786-0 was > 100 µM (inactive) throughout. For the same molecule, the GI50 in the test with SR is 32.4 µM (inactive); in the test with HCT-116 it was 24.2 µM (inactive); in the test on NCI-H460, 83.9 µM (inactive); in the test with U-251 it was > 100 µM (inactive); in the test on MOLT-4, > 100 µM (inactive); in the test with HCC 2998, > 100 µM (inactive). Moreover, the GI50 with UO-31 was > 100 µM (inactive).

Take `COc1cc2c(c(OC)c1OC)-c1ccc(SC)c(=O)cc1[C@@H](NC(=O)c1ccc(C#N)cc1)CC2`: the GI50 in the test with SK-MEL-28 is > 79.8 µM (inactive); in the test with TK-10, 3.3 µM (inactive); with CCRF-CEM, < 0.01 µM (active); with OVCAR-8, < 0.01 µM (active); in the test on HOP-62 it was < 0.01 µM (active); in the test on RPMI-8226, < 0.01 µM (active). For the same molecule, the GI50 in the test on HOP-92, in the test with SK-OV-3, in the test on M14, in the test with UACC-257, in the test with A549 and in the test with 786-0 was < 0.01 µM (active) each time. Further, the GI50 with SR, in the test with HCT-116, in the test on NCI-H460, with U-251, with MOLT-4 and with HCC 2998 was < 0.01 µM (active) in each case. The GI50 with UO-31 is < 0.01 µM (active).
